The source of these data is PubChem BioAssay (NCI).

Among the test systems are 786-0 renal; ACHN renal; COLO 205 colon; DU-145 prostate; HCT-15 colon; HT29 colon; IGROV1 ovarian; MOLT-4 leukemia; NCI-H23 lung; NCI-H522 lung; NCI/ADR-RES ovarian; OVCAR-8 ovarian; RPMI-8226 leukemia; RXF 393 renal; SR leukemia; TK-10 renal; UACC-257 melanoma; OVCAR-4 ovarian; NCI-H226 lung.
Assay in all cases: NCI-60 cell line screen, 48 h

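Cells were grown in 96-well plates and exposed to each compound for 48 hours at five concentrations; endpoints were interpolated linearly between bracketing concentrations, or set to the highest concentration if not reached. TGI marks complete inhibition of growth.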

For `O=C1C=Cc2c(Br)sc(Br)c21`, the TGI in the test with 786-0 renal was more than 100 µM; in the test with ACHN renal it was 57.7 µM; in the test on COLO 205 colon, more than 100 µM; in the test on DU-145 prostate, more than 100 µM; in the test on HCT-15 colon, 90.4 µM; with HT29 colon, 85.9 µM. In addition, the TGI in the test on IGROV1 ovarian is 43.5 µM; in the test with MOLT-4 leukemia it was 36.8 µM; in the test with NCI-H23 lung it was more than 100 µM; in the test with NCI-H522 lung, 68.2 µM; with NCI/ADR-RES ovarian, more than 100 µM; in the test with OVCAR-8 ovarian it was more than 100 µM. Further, the TGI is 46.3 µM in the test with RPMI-8226 leukemia; 46 µM with RXF 393 renal; 75.2 µM in the test with SR leukemia; 31.7 µM in the test on TK-10 renal; more than 100 µM in the test on UACC-257 melanoma.
Turning to `Cc1ccc(S(=O)(=O)NC(=O)NC(CC(N)=O)C(=O)O)cc1` (stereo not given), the TGI with 786-0 renal, in the test with ACHN renal, with COLO 205 colon, with DU-145 prostate, in the test on HCT-15 colon and in the test with HT29 colon was more than 100 µM in each case. For the same molecule, the TGI in the test with IGROV1 ovarian, in the test with MOLT-4 leukemia, with NCI-H23 lung, in the test with NCI-H522 lung, with NCI/ADR-RES ovarian and with OVCAR-4 ovarian was more than 100 µM each time. In addition, the TGI in the test on OVCAR-8 ovarian, in the test with RPMI-8226 leukemia, in the test with RXF 393 renal, in the test with SR leukemia, with TK-10 renal and in the test on UACC-257 melanoma was more than 100 µM each time.
For the molecule `Cc1ccc(Cc2n[nH]c(=O)[nH]2)cc1`, the TGI in the test on 786-0 renal, with ACHN renal, with COLO 205 colon, with DU-145 prostate, in the test with HCT-15 colon and in the test with HT29 colon was more than 100 µM in each case. In addition, the TGI in the test on IGROV1 ovarian, in the test with MOLT-4 leukemia, in the test with NCI-H226 lung, in the test on NCI-H23 lung, in the test with NCI/ADR-RES ovarian and in the test on OVCAR-4 ovarian was more than 100 µM throughout. Besides, the TGI with OVCAR-8 ovarian, in the test with SR leukemia, with TK-10 renal and in the test with UACC-257 melanoma was more than 100 µM throughout.
`Cc1cccc2oc3c(CC(=O)O)cccc3c(=O)c12`: the TGI in the test on 786-0 renal, in the test on ACHN renal, with COLO 205 colon, with DU-145 prostate, with HCT-15 colon and in the test with HT29 colon was more than 100 µM each time. For the same molecule, the TGI with IGROV1 ovarian, in the test with MOLT-4 leukemia, with NCI-H226 lung, in the test with NCI-H23 lung, with NCI-H522 lung and with NCI/ADR-RES ovarian was more than 100 µM in each case. Further, the TGI with OVCAR-4 ovarian, in the test with OVCAR-8 ovarian, in the test on RPMI-8226 leukemia, in the test on SR leukemia, in the test with TK-10 renal and with UACC-257 melanoma was more than 100 µM throughout.
With `COC1(c2ccc(Cl)cc2)SC=C(C)n2c1noc2=O` (stereo not given), the TGI with 786-0 renal, with ACHN renal, in the test with COLO 205 colon, in the test on DU-145 prostate, in the test on HCT-15 colon and in the test on HT29 colon was more than 100 µM each time. For the same molecule, the TGI was more than 100 µM with IGROV1 ovarian; more than 100 µM in the test on MOLT-4 leukemia; more than 100 µM with NCI-H23 lung; more than 100 µM in the test on NCI-H522 lung; 94.9 µM in the test on NCI/ADR-RES ovarian; more than 100 µM in the test with OVCAR-4 ovarian. Further, the TGI in the test on RPMI-8226 leukemia, in the test on RXF 393 renal, with SR leukemia and in the test on UACC-257 melanoma was more than 100 µM each time.
Turning to `Cc1ccc(Nc2nc(=O)c3c4ccccc4n(C(=O)OC(C)(C)C)c3s2)cc1`, the TGI with 786-0 renal is 38.5 µM; with ACHN renal, more than 100 µM; in the test on COLO 205 colon, more than 100 µM; in the test on DU-145 prostate, more than 100 µM; in the test on HCT-15 colon, more than 100 µM; with HT29 colon it was more than 100 µM. For the same molecule, the TGI in the test on IGROV1 ovarian was more than 100 µM; with MOLT-4 leukemia, more than 100 µM; in the test on NCI-H23 lung, 50.4 µM; in the test on NCI-H522 lung it was 59.3 µM; in the test with NCI/ADR-RES ovarian it was 32.5 µM; in the test with OVCAR-4 ovarian, more than 100 µM. Also, the TGI is more than 100 µM in the test on OVCAR-8 ovarian; 48.7 µM with RPMI-8226 leukemia; 44.9 µM in the test on SR leukemia; 99.9 µM with TK-10 renal; more than 100 µM in the test on UACC-257 melanoma.
As to `COc1cccc(-c2nc3ccccc3c(=O)[nH]2)c1`, the TGI was 28.1 µM in the test on 786-0 renal; 37.4 µM in the test with ACHN renal; more than 100 µM in the test on COLO 205 colon; more than 100 µM with DU-145 prostate; 51.6 µM in the test on HCT-15 colon; 55.5 µM in the test on HT29 colon. Moreover, the TGI in the test with IGROV1 ovarian is 58.8 µM; in the test on MOLT-4 leukemia, more than 100 µM; in the test with NCI-H23 lung, more than 100 µM; in the test with NCI-H522 lung it was 60.8 µM; in the test on NCI/ADR-RES ovarian, 51.8 µM; in the test with OVCAR-8 ovarian it was more than 100 µM. Besides, the TGI in the test with RXF 393 renal was 56.6 µM; with SR leukemia it was more than 100 µM; in the test on TK-10 renal, 36.9 µM; in the test with UACC-257 melanoma, 56.2 µM.
As for `NC(CCCCCCCCCCP(=O)(O)O)C(=O)O` (stereo not given), the TGI in the test on ACHN renal, in the test on COLO 205 colon, in the test on DU-145 prostate, with HCT-15 colon, in the test on HT29 colon and in the test with IGROV1 ovarian was more than 100 µM each time. Besides, the TGI in the test with MOLT-4 leukemia, in the test with NCI-H23 lung, in the test on NCI-H522 lung, with NCI/ADR-RES ovarian, with OVCAR-4 ovarian and in the test with OVCAR-8 ovarian was more than 100 µM in each case. The TGI in the test on RPMI-8226 leukemia, in the test on RXF 393 renal, in the test with SR leukemia, in the test on TK-10 renal and in the test with UACC-257 melanoma was more than 100 µM each time.
